From publication PMC4553520, “Laboratory and Simulated Field Bioassays to Evaluate Larvicidal Activity of Pinus densiflora Hydrodistillate, Its Constituents and Structurally Related Compounds against Aedes albopictus, Aedes aegypti and Culex pipiens pallens in Relation to Their Inhibitory Effects on Acetylcholinesterase Activity” (Insects, 2013) come the findings set out here.

Series [1] relates to early third-instar larvae of Ae. aegypti. As to the kind of experiment: Direct-contact mortality bioassay, Ae. aegypti larvae. Conditions: for LC50 (Ae. aegypti), mg/L (95% CL): early third-instar larvae, 24 h exposure, direct contact; for LC50: Aedes aegypti, 24 h, read-out: LC50 (Ae. aegypti), mg/L (95% CL). The protocol: (§1) Direct-contact mortality bioassays were employed to evaluate the toxicity of all compounds, using early third-instar larvae of each mosquito species. Each compound was dissolved in methanol, and then further diluted in distilled water containing Triton X-100 (20 µL/L). Groups of 20 mosquito larvae of each species were put into separate paper cups (270 mL), each containing different compound solutions (250 mL). The toxicity of each compound was determined by repeating this experimental procedure with different concentrations, ranging from 5 to 200 mg/L. Temephos and fenthion served as standard references and were similarly formulated as well. Controls contained only methanol-Triton X-100 carrier solution in distilled water.
(§2) Both treated and control larvae were kept under the same conditions as those used for colony maintenance. […] Due to certain constraints arising from the number of available larvae, all necessary bioassays could not be conducted simultaneously and thus, treatments were conducted over a period of time, with a separate control treatment included each time. Freshly prepared compound solutions were used for each round of bioassays. All bioassays were repeated three times.
(§3) Concentration-mortality data were subjected to probit analysis using SAS [20]. […] Furthermore, for the compounds tested in AChE inhibition assays, a correlation analysis between their LC50 values and IC50 values was conducted using SAS [20].

In series [2] the target is acetylcholinesterase (AChE) extracted from the heads of larval Cx. p. pallens (Culex pipiens pallens, UniProt Q86GC8). Nature of the series: AChE inhibition assay, Cx. p. pallens. In kind it is biochemical. The conditions noted are these: in vitro. The protocol: (§4) For each species, larvae frozen at −20 °C were decapitated and 100 heads were homogenized in 5 mL of ice-cold 0.1 M sodium phosphate buffer (pH 8.0), using a Teflon glass tissue homogenizer. The homogenate was centrifuged at 10,000 × g at 4 °C for 20 min. The supernatant was filtered by a 0.22 µm-Millex-GV filter (Millipore, Cork, Ireland) and was used as the AChE preparation. Protein concentrations were determined by the Bradford dye method using BSA as the standard. A microplate AChE assay was carried out following the method of Moores et al. adapted from Ellman et al.. The reaction mixture consisted of 80 µL of the crude enzyme preparation, 10 µL of 7.5 mM DTNB in phosphate buffer (pH 7.0) and 100 µL of the selected test compounds of various concentrations in 2.5% acetone. The reaction mixture was incubated at 30 °C for 5 min and 10 µL of 6.25 mM ATChI was then added to the mixture. The absorbance was recorded at 414 nm, using a Molecular Devices VersaMax microplate reader (Sunnyvale, CA, USA). All AChE inhibition assays were repeated three times in triplicates.
Sequence of acetylcholinesterase (AChE) extracted from the heads of larval Cx. p. pallens (Q86GC8 37-702): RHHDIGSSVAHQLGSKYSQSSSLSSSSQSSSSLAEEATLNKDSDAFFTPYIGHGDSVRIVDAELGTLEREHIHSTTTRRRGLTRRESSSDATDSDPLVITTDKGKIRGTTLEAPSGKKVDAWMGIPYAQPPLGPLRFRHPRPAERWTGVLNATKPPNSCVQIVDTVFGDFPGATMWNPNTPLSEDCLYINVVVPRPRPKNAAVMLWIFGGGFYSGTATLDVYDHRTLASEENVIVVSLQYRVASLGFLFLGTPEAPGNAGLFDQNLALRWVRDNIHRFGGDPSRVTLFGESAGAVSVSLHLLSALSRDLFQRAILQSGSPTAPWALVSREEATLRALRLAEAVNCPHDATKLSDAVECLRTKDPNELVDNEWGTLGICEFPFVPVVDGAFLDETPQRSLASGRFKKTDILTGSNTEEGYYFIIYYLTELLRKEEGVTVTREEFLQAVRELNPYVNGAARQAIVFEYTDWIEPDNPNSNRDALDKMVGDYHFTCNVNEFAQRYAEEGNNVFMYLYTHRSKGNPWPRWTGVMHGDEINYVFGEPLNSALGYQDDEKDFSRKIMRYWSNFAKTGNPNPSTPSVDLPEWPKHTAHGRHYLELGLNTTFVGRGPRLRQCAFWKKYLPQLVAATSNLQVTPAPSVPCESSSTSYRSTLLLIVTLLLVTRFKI
as §3

Series [3] has as its target acetylcholinesterase (AChE) extracted from the heads of larval Ae. aegypti (Aedes aegypti, UniProt Q6A2E2). As to the kind of experiment: AChE inhibition assay, Ae. aegypti. In kind it is biochemical. The conditions noted are these: in vitro. Here is the method:
as §4, §3

Series [4] has as its system early third-instar larvae of Ae. albopictus. As to the kind of experiment: Direct-contact mortality bioassay, Ae. albopictus larvae. The conditions noted are these: for LC50 (Ae. albopictus), mg/L (95% CL): early third-instar larvae, 24 h exposure, direct contact; for LC50: Aedes albopictus, 24 h, read-out: LC50 (Ae. albopictus), mg/L (95% CL). Here is the method: as §1, §2, §3

The test system of series [5] is early third-instar larvae of Cx. p. pallens. Nature of the series: Direct-contact mortality bioassay, laboratory-reared Cx. p. pallens larvae. The conditions noted are these: for LC50 (Cx p. pallens), mg/L (95% CL): laboratory-reared early third-instar larvae, 24 h exposure, direct contact; for LC50: Culex pipiens, 24 h, read-out: LC50 (Cx p. pallens), mg/L (95% CL). The protocol:
as §1, §2, §3

The target of series [6] is acetylcholinesterase (AChE) extracted from the heads of larval Ae. albopictus (Aedes albopictus, UniProt Q2PGF2). As to the kind of experiment: AChE inhibition assay, Ae. albopictus. Conditions: in vitro. In kind it is biochemical. Here is the method: as §4, §3
Sequence of acetylcholinesterase (AChE) extracted from the heads of larval Ae. albopictus (Q2PGF2 37-680): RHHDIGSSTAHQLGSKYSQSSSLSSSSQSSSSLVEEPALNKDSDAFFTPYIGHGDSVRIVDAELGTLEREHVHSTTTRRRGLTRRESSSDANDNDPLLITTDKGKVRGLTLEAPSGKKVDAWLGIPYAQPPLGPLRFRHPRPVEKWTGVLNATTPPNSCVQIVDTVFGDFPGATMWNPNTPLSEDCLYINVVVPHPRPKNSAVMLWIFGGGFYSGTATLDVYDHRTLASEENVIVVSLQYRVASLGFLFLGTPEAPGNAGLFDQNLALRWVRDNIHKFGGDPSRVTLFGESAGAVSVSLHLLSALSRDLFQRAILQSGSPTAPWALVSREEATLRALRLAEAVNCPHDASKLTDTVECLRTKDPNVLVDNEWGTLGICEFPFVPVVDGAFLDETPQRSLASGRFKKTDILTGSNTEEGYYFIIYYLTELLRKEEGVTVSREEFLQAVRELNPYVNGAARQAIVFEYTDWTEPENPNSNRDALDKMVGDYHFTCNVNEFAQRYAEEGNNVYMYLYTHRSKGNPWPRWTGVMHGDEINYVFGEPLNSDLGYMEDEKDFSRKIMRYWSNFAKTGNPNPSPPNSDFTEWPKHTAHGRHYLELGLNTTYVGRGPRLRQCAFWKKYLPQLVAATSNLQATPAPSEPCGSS
Series [7] concerns field-collected larvae of Cx. p. pallens. As to the kind of experiment: Semi-field bioassay, field-collected Cx. p. pallens larvae. Conditions: for LC50: Culex pipiens, 24 h, read-out: LC50, mg/L, Field-collected; for Resistance ratio: field-collected vs laboratory-reared Cx. p. pallens larvae (LC50 ratio). Here is the method:
Larvae of wild mosquitoes were field-collected from irrigated rice fields in Yongin, Korea in early August 2012. A satellite view of the larvae collection site is included in Figure 1 [13].
The buckets were treated with test compounds and covered with nylon mesh screen to prevent other mosquitoes and insects from laying eggs. The buckets were then placed back at the initial collection site and were allowed to stand for 24 h, after which the mortality data were recorded. Temephos and fenthion served as standard references.
as §3

Values after ≈ are worked out from the molar mass of the structure shown.

Sequence of acetylcholinesterase (AChE) extracted from the heads of larval Ae. aegypti (Q6A2E2 37-679): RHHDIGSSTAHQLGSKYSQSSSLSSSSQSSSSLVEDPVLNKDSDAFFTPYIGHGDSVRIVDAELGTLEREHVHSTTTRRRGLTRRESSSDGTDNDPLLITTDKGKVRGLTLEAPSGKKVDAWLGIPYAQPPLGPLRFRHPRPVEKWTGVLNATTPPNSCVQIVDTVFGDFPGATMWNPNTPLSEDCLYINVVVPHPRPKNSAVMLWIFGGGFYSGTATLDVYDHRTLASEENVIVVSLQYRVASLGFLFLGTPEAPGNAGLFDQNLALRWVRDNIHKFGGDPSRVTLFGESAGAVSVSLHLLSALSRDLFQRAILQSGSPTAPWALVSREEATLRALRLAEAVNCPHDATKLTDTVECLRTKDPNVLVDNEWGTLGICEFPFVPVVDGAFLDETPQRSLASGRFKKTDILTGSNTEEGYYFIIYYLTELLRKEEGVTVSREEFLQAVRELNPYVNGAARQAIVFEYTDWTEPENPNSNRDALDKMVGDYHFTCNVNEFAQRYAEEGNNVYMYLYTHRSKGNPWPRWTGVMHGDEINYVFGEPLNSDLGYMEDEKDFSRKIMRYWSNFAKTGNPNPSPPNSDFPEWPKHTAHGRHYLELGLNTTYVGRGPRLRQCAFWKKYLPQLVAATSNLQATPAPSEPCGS

Regarding `C/C1=C\CC/C(C)=C/CC(C)(C)/C=C/C1` [α-humulene], the “LC50 (Ae. aegypti), mg/L (95% CL)” value in series [1] is given as greater than 150 mg/L. The IC50 in series [2] was 62.3 mM; in series [3] it was 58.1 mM; in series [6], 47.6 mM. The “LC50 (Ae. albopictus), mg/L (95% CL)” value in series [4] was greater than 150 mg/L. In addition, the “LC50 (Cx p. pallens), mg/L (95% CL)” value in series [5] was greater than 150 mg/L.
(−)-myrtenal: the “LC50 (Ae. aegypti), mg/L (95% CL)” value in series [1] is greater than 150 mg/L. Also, the IC50 in series [2] was 31.6 mM; in series [3] it was 34 mM; in series [6], 23.7 mM. For the same molecule, the “LC50 (Ae. albopictus), mg/L (95% CL)” value in series [4] is listed as 137.86 (119.15–173.91) mg/L. Moreover, the “LC50 (Cx p. pallens), mg/L (95% CL)” value in series [5] is listed as 139.61 (122.92–169.77) mg/L.
Turning to `CC1=CCC(=C(C)C)CC1` [α-terpinolene], the LC50 stood at 15.3 mg/L (≈ 112 µM) in series [1], 13.9 mg/L (≈ 102 µM) in series [4], 10.6 mg/L (≈ 78 µM) in series [5] and 13.9 mg/L (≈ 102 µM) in series [7]. Moreover, the Resistance ratio in series [7] worked out at 1.31.
For `CC1=CCC2C(C1)C2(C)C` (stereo not shown) [δ-3-carene], the LC50 in series [1] was found to be 12.1 mg/L (≈ 88.8 µM); in series [4], 9.33 mg/L (≈ 68.5 µM); in series [5], 10.1 mg/L (≈ 74.2 µM); in series [7] it was 12.7 mg/L (≈ 93 µM). The Resistance ratio in series [7] was 1.25.
